Experimental data from patent US20060046968A1, “Prodrug substituted benzoxazoles as estrogenic agents” (priority 2004, published 2006).

Key:
[1] = tested on: ovariectomized Sprague-Dawley rats; assay: Bone mineral density in the ovariectomized rat (pQCT, proximal tibia); assay type: in vivo; conditions: 17β-estradiol 2 μg/rat s.c.; 5 weeks
[2] = tested on: Sexually immature 129 SvE mice; assay: Mouse uterotrophic test procedure (Procedure 2); assay type: in vivo; conditions: compound 50 mg/kg s.c., days 22-25
[3] = tested on: Progesterone receptor mRNA; assay: Progesterone receptor mRNA regulation in the preoptic area of the rat brain; assay type: in vivo; conditions: 10 mg/kg
[4] = biological target: T1, human ERβ (Homo sapiens, UniProt Q92731); assay: ER radioligand binding competition, ERβ
T1 construct: Flag (C); made in house; host or cells: E. coli BL21 (DE3), clarified lysate
T1 sequence (Q92731 214-530): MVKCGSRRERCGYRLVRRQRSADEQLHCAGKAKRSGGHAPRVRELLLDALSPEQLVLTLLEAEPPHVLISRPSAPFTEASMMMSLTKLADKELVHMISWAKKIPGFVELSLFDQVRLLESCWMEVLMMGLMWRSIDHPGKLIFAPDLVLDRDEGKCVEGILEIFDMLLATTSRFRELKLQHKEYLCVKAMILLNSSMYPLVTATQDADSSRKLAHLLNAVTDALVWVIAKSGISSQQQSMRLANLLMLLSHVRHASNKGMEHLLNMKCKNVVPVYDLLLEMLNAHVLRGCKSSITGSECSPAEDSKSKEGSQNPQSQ

[5] = biological target: T2, human ERα (Homo sapiens, UniProt P03372); assay: ER radioligand binding competition, ERα; conditions: competition with [3H]-17β-estradiol; read-out: ER-α IC50
T2 construct: These templates contained amino acids M250-V595 of human ERα; His (N); Flag (C); made in house; host or cells: E. coli BL21 (DE3), clarified lysate
T2 sequence (P03372 250-595): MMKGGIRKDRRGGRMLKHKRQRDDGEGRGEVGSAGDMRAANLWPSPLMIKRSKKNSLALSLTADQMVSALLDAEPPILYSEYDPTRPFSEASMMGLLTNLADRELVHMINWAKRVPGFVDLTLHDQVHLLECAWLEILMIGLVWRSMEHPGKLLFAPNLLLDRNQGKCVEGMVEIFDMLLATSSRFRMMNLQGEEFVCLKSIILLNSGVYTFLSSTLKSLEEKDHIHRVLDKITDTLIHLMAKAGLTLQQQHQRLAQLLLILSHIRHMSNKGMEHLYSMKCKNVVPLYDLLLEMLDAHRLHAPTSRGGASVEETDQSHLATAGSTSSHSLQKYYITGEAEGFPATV

[6] = tested on: Lewis rats; assay: Lewis rat adjuvant-induced arthritis, treatment protocol: joint score (maximal score per day 12); assay type: in vivo; conditions: s.c. daily, begun Day 8 after adjuvant
[7] = tested on: Male HLA-B27 rats; assay: HLA rat test for inflammatory bowel disease: stool character (3 = diarrhea; 2 = soft stool; 1 = normal stool); assay type: in vivo; conditions: Study B, oral 10 mg/kg
[8] = tested on: Male HLA-B27 rats; assay: HLA-B27 rat test for inflammatory bowel disease: histological scoring of colon; assay type: in vivo; conditions: Study B; oral 4 weeks; 10 mg/kg
Protocol: Representative metabolites of compounds of the invention were evaluated in the HLA rat standard pharmacological test procedure, which emulates inflammatory bowel disease in humans. The following briefly describes the procedure used and results obtained. […] Louis) and water. Stool quality was observed daily and graded according to the following scale: Diarrhea=3; soft stool=2; normal stool=1. At the end of the study, serum was collected and stored at −70° C. A section of colon was prepared for histological analysis and an additional segment was analyzed for myeloperoxidase activity. In Study A, rats (22-26 weeks old) were dosed subcutaneously once per day for seven days with one of the regimens listed below. […] Histological analysis. Colonic tissue was immersed in 10% neutral buffered formalin. Each specimen of colon was separated into four samples for evaluation. The formalin-fixed tissues were processed in a Tissue-Tek® vaccum infiltration processor (Miles, Inc; West Haven, Conn.) for paraffin embedding. The samples were sectioned at 5 μm and then stained with hematoxylin and eosin (H&E) for blinded histological evaluations using a scale modified after Boughton-Smith. After the scores were completed, the samples were unblinded, and data were tabulated and analyzed by ANOVA linear modeling with multiple mean comparisons. Sections of colonic tissue were evaluated for several disease indicators and given relative scores.

[9] = tested on: Male HLA-B27 rats; assay: HLA-B27 rat model of arthritis: joint scores; assay type: in vivo; conditions: Study 2, oral 10 mg/kg

`C[C@]12CC[C@@H]3c4ccc(O)cc4CC[C@H]3[C@@H]1CC[C@@H]2O` [17β-estradiol, reference compound] was tested, and the “Total Bone Mineral Density (mean ± SEM)” value [1] was 639.49 ± 14.47 mg/mL and the “Trabecular Bone Mineral Density (mean ± SEM)” value [1] was 453.28 ± 24.93 mg/mL.

For `C=Cc1cc(O)cc2nc(-c3ccc(O)c(F)c3F)oc12` [Example 26, 2-(2,3-DIFLUORO-4-HYDROXYPHENYL)-7-VINYL-1,3-BENZOXAZOL-5-OL], the “mean uterine weight ± SEM” value [2] was 9.0 ± 0.3 mg and the “Progesterone receptor mRNA (mean ± stdev)” value [3] was 467.8 ± 66.7 arbitrary units.

`C=C(Br)c1cc(O)cc2nc(-c3ccc(O)cc3F)oc12` [Example 32, 7-(1-BROMOVINYL)-2-(2-FLUORO-4-HYDROXYPHENYL)-1,3-BENZOXAZOL-5-OL] showed an IC50 [4] of 16 nM, an IC50 [5] of 196 nM and a Joint inflammation score ([6]; table Day 1) of 11.33. For the same molecule, the Joint inflammation score ([6]; table Day 2) was 10.83, the Joint inflammation score ([6]; table Day 3) was 9.33 and the Joint inflammation score ([6]; table Day 4) was 8.00. It also gave a Joint inflammation score ([6]; table Day 5) of 5.83, a Joint inflammation score ([6]; table Day 6) of 3.33 and a Joint inflammation score ([6]; table Day 7) of 3.00. The Joint inflammation score ([6]; table Day 8) was 2.50, the Joint inflammation score ([6]; table Day 9) was 2.50 and the Joint inflammation score ([6]; table Day 10) was 2.50. It also gave a Joint inflammation score ([6]; table Day 11) of 2.50, a Joint inflammation score ([6]; table Day 12) of 2.50 and a Joint inflammation score ([6]; table Day 13) of 2.50. For the same molecule, the Joint inflammation score ([6]; table Day 14) was 2.50, the Joint inflammation score ([6]; table Day 15) was 2.00 and the Joint inflammation score ([6]; table Day 16) was 1.33. The Joint inflammation score ([6]; table Day 17) was 1.00.

With `C=CCc1cc(O)cc2nc(-c3ccc(O)c(F)c3)oc12` [Example 34, 7-ALLYL-2-(3-FLUORO-4-HYDROXYPHENYL)-1,3-BENZOXAZOL-5-OL] the “Progesterone receptor mRNA (mean ± stdev)” value [3] was 511.5 ± 23.7 arbitrary units, the “Stool Character (group's average score)” value ([7]; Day 1) was 1 and the “Stool Character (group's average score)” value ([7]; Day 2) was 1. For the same molecule, the “Stool Character (group's average score)” value ([7]; Day 3) was 1, the “Stool Character (group's average score)” value ([7]; Day 4) was 1.25 and the “Stool Character (group's average score)” value ([7]; Day 5) was 2. The “Stool Character (group's average score)” value ([7]; Day 6) was 1.75, the “Stool Character (group's average score)” value ([7]; Day 7) was 1.75 and the “Stool Character (group's average score)” value ([7]; Day 8) was 1.5. The “Stool Character (group's average score)” value ([7]; Day 9) was 1.5, the “Stool Character (group's average score)” value ([7]; Day 10) was 1.25 and the “Stool Character (group's average score)” value ([7]; Day 11) was 1.5. The “Stool Character (group's average score)” value ([7]; Day 12) was 1.5, the “Stool Character (group's average score)” value ([7]; Day 13) was 1.25 and the “Stool Character (group's average score)” value ([7]; Day 14) was 1.25. For the same molecule, the “Stool Character (group's average score)” value ([7]; Day 15) was 1.25, the “Stool Character (group's average score)” value ([7]; Day 16) was 1 and the “Stool Character (group's average score)” value ([7]; Day 17) was 1. For the same molecule, the “Stool Character (group's average score)” value ([7]; Day 18) was 1.25, the “Stool Character (group's average score)” value ([7]; Day 19) was 1 and the “Stool Character (group's average score)” value ([7]; Day 22) was 1. For the same molecule, the “Stool Character (group's average score)” value ([7]; Day 23) was 1, the “Stool Character (group's average score)” value ([7]; Day 24) was 1 and the “Stool Character (group's average score)” value ([7]; Day 25) was 1. For the same molecule, the “Stool Character (group's average score)” value ([7]; Day 26) was 1, the “Fibrosis (0-2), mean ± SD” value [8] was 0.31 ± 0.32 and the “Inflammation (0-3), mean ± SD” value [8] was 1.81 ± 0.13. The “Lesion depth (0-2), mean ± SD” value [8] was 0.63 ± 0.32, the “Total score, mean ± SD” value [8] was 3.50 ± 1.10 and the “Ulceration (0-2), mean ± SD” value [8] was 0.75 ± 0.46. It also gave a Joint inflammation score ([9]; Day 1) of 0, a Joint inflammation score ([9]; Day 2) of 0 and a Joint inflammation score ([9]; Day 3) of 0. The Joint inflammation score ([9]; Day 4) was 0, the Joint inflammation score ([9]; Day 5) was 0 and the Joint inflammation score ([9]; Day 6) was 0. For the same molecule, the Joint inflammation score ([9]; Day 7) was 0, the Joint inflammation score ([9]; Day 8) was 0.25 and the Joint inflammation score ([9]; Day 9) was 0.75. The Joint inflammation score ([9]; Day 10) was 0.5, the Joint inflammation score ([9]; Day 11) was 0.5 and the Joint inflammation score ([9]; Day 12) was 0.25. For the same molecule, the Joint inflammation score ([9]; Day 13) was 0.5, the Joint inflammation score ([9]; Day 14) was 0 and the Joint inflammation score ([9]; Day 15) was 0.5. The Joint inflammation score ([9]; Day 16) was 0.5, the Joint inflammation score ([9]; Day 17) was 0.25 and the Joint inflammation score ([9]; Day 18) was 0.75. The Joint inflammation score ([9]; Day 19) was 1, the Joint inflammation score ([9]; Day 22) was 1 and the Joint inflammation score ([9]; Day 23) was 1.75. The Joint inflammation score ([9]; Day 24) was 1.75, the Joint inflammation score ([9]; Day 25) was 2 and the Joint inflammation score ([9]; Day 26) was 3.

For `NC(=O)c1cc(O)cc2nc(-c3ccc(O)cc3)oc12` [Example 42, 5-HYDROXY-2-(4-HYDROXYPHENYL)-1,3-BENZOXAZOL-7-CARBOXAMIDE], the “mean uterine weight ± SEM” value [2] was 9.5 ± 0.6 mg.
